Assay results taken from US10597388B2, “Pyridazinone herbicides” (FMC CORPORATION, priority 2014, dated 2020).

Legend:
Test in all cases: Test D controlled growth environment herbicide test, pre- and postemergence
Format in all cases: in vivo
[1] = test system: Russian thistle (Salsola kali)
How it was run: (§1)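 Pre-emergence: seeds sown in silt loam soil were sprayed with compound in a non-phytotoxic solvent mix containing surfactant. Post-emergence: plants at 2 to 18 cm (1- to 4-leaf stage) in peat moss/vermiculite medium got the same formulation. Visual 0–100 rating versus controls after 14 to 21 d.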

[2] = test system: blackgrass (Alopecurus myosuroides)
How it was run: as §1

[3] = test system: bromegrass, downy (downy bromegrass, Bromus tectorum)
How it was run: as §1

[4] = test system: chickweed (common chickweed, Stellaria media)
How it was run: as §1

[5] = test system: deadnettle (henbit deadnettle, Lamium amplexicaule)
How it was run: as §1

[6] = test system: foxtail, green (green foxtail, Setaria viridis)
How it was run: as §1

[7] = test system: mustard, wild (wild mustard, Sinapis arvensis)
How it was run: as §1

[8] = test system: oat, wild (wild oat, Avena fatua)
How it was run: as §1

[9] = test system: oilseed rape (Brassica napus)
How it was run: as §1

[10] = test system: ryegrass, Italian (Italian ryegrass, Lolium multiflorum)
How it was run: as §1

[11] = test system: speedwell (bird's-eye speedwell, Veronica persica)
How it was run: as §1

[12] = test system: wheat, spring (spring wheat, Triticum aestivum)
How it was run: as §1

[13] = test system: wheat, winter (winter wheat, Triticum aestivum)
How it was run: as §1

[14] = Postemergence, 31 g ai/ha, scale 0 to 100 (0 no effect, 100 complete control)
[15] = Postemergence, 125 g ai/ha, visual rating on scale 0 (no effect) to 100 (complete control), 14 to 21 d
[16] = Postemergence, 250 g ai/ha, scale 0 to 100 (0 no effect, 100 complete control)
[17] = Preemergence, 125 g ai/ha, scale 0 to 100 (0 no effect, 100 complete control)
[18] = Preemergence, 250 g ai/ha, scale 0 to 100, 0 no effect, 100 complete control
[19] = postemergence, 62 g ai/ha, scale 0 to 100, 0 no effect, 100 complete control
[20] = Preemergence, 62 g ai/ha, scale 0 to 100 (0 no effect, 100 complete control)

CCCC(=O)Oc1c(C)nn(C)c(=O)c1-c1c(C)sc2ccc(C)cc12 [Compound 105]
Russian Thistle plant response rating [1, 14]: 40
Plant response rating, Russian Thistle [1, 15]: 50
Plant response rating, Russian Thistle [1, 16]: 50
Plant response rating (scale of 0 to 100), Russian Thistle ([1]; Preemergence, 31 g ai/ha): 0
Plant response rating (scale of 0 to 100), Russian Thistle ([1]; Preemergence, 62 g ai/ha): 60
Plant response rating, Russian Thistle [1, 17]: 70
Plant response rating, Russian Thistle [1, 18]: 90
Plant response rating, Russian Thistle [1, 19]: 45
Blackgrass plant response rating [2, 14]: 15
Plant response rating, Blackgrass [2, 15]: 65
Plant response rating, Blackgrass [2, 16]: 65
Plant response rating (scale of 0 to 100), Blackgrass ([2]; Preemergence, 31 g ai/ha): 35
Plant response rating, Blackgrass [2, 20]: 50
Plant response rating, Blackgrass [2, 17]: 60
Plant response rating, Blackgrass [2, 18]: 75
Plant response rating, Blackgrass [2, 19]: 25
Bromegrass, Downy plant response rating [3, 14]: 10
Plant response rating, Bromegrass, Downy [3, 15]: 25
Plant response rating, Bromegrass, Downy [3, 16]: 65
Plant response rating (scale of 0 to 100), Bromegrass, Downy ([3]; Preemergence, 31 g ai/ha): 35
Plant response rating, Bromegrass, Downy [3, 20]: 65
Plant response rating, Bromegrass, Downy [3, 17]: 70
Plant response rating, Bromegrass, Downy [3, 18]: 75
Plant response rating, Bromegrass, Downy [3, 19]: 20
Chickweed plant response rating [4, 14]: 90
Plant response rating, Chickweed [4, 15]: 100
Plant response rating, Chickweed [4, 16]: 100
Plant response rating (scale of 0 to 100), Chickweed ([4]; Preemergence, 31 g ai/ha): 100
Plant response rating (scale of 0 to 100), Chickweed ([4]; Preemergence, 62 g ai/ha): 100
Plant response rating, Chickweed [4, 17]: 100
Plant response rating, Chickweed [4, 18]: 100
Plant response rating, Chickweed [4, 19]: 90
Deadnettle plant response rating [5, 14]: 10
Plant response rating, Deadnettle [5, 15]: 20
Plant response rating, Deadnettle [5, 16]: 30
Plant response rating (scale of 0 to 100), Deadnettle ([5]; Preemergence, 62 g ai/ha): 10
Plant response rating, Deadnettle [5, 17]: 15
Plant response rating, Deadnettle [5, 18]: 65
Plant response rating, Deadnettle [5, 19]: 10
Foxtail, Green plant response rating [6, 14]: 70
Plant response rating, Foxtail, Green [6, 15]: 75
Plant response rating, Foxtail, Green [6, 16]: 80
Plant response rating (scale of 0 to 100), Foxtail, Green ([6]; Preemergence, 31 g ai/ha): 45
Plant response rating (scale of 0 to 100), Foxtail, Green ([6]; Preemergence, 62 g ai/ha): 55
Plant response rating, Foxtail, Green [6, 17]: 65
Plant response rating, Foxtail, Green [6, 18]: 100
Plant response rating, Foxtail, Green [6, 19]: 70
Mustard, Wild plant response rating [7, 14]: 5
Plant response rating, Mustard, Wild [7, 15]: 40
Plant response rating, Mustard, Wild [7, 16]: 75
Plant response rating (scale of 0 to 100), Mustard, Wild ([7]; Preemergence, 31 g ai/ha): 10
Plant response rating (scale of 0 to 100), Mustard, Wild ([7]; Preemergence, 62 g ai/ha): 0
Plant response rating, Mustard, Wild [7, 17]: 0
Plant response rating, Mustard, Wild [7, 18]: 20
Plant response rating, Mustard, Wild [7, 19]: 25
Oat, Wild plant response rating [8, 14]: 80
Plant response rating, Oat, Wild [8, 15]: 95
Plant response rating, Oat, Wild [8, 16]: 100
Plant response rating (scale of 0 to 100), Oat, Wild ([8]; Preemergence, 31 g ai/ha): 80
Plant response rating (scale of 0 to 100), Oat, Wild ([8]; Preemergence, 62 g ai/ha): 80
Plant response rating, Oat, Wild [8, 17]: 85
Plant response rating, Oat, Wild [8, 18]: 100
Plant response rating, Oat, Wild [8, 19]: 85
Oilseed Rape plant response rating [9, 14]: 0
Plant response rating, Oilseed Rape [9, 15]: 25
Plant response rating, Oilseed Rape [9, 16]: 60
Plant response rating (scale of 0 to 100), Oilseed Rape ([9]; Preemergence, 31 g ai/ha): 55
Plant response rating (scale of 0 to 100), Oilseed Rape ([9]; Preemergence, 62 g ai/ha): 60
Plant response rating, Oilseed Rape [9, 17]: 50
Plant response rating, Oilseed Rape [9, 18]: 50
Plant response rating, Oilseed Rape [9, 19]: 15
Ryegrass, Italian plant response rating [10, 14]: 75
Plant response rating, Ryegrass, Italian [10, 15]: 90
Plant response rating, Ryegrass, Italian [10, 16]: 95
Plant response rating (scale of 0 to 100), Ryegrass, Italian ([10]; Preemergence, 31 g ai/ha): 85
Plant response rating (scale of 0 to 100), Ryegrass, Italian ([10]; Preemergence, 62 g ai/ha): 90
Plant response rating, Ryegrass, Italian [10, 17]: 95
Plant response rating, Ryegrass, Italian [10, 18]: 98
Plant response rating, Ryegrass, Italian [10, 19]: 85
Speedwell plant response rating [11, 14]: 45
Plant response rating, Speedwell [11, 15]: 65
Plant response rating, Speedwell [11, 16]: 75
Plant response rating, Speedwell [11, 19]: 50
Wheat, Spring plant response rating [12, 14]: 0
Plant response rating, Wheat, Spring [12, 15]: 20
Plant response rating, Wheat, Spring [12, 16]: 25
Plant response rating (scale of 0 to 100), Wheat, Spring ([12]; Preemergence, 31 g ai/ha): 0
Plant response rating (scale of 0 to 100), Wheat, Spring ([12]; Preemergence, 62 g ai/ha): 0
Plant response rating, Wheat, Spring [12, 17]: 0
Plant response rating, Wheat, Spring [12, 18]: 40
Plant response rating, Wheat, Spring [12, 19]: 10
Wheat, Winter plant response rating [13, 14]: 0
Plant response rating, Wheat, Winter [13, 15]: 10
Plant response rating, Wheat, Winter [13, 16]: 20
Plant response rating (scale of 0 to 100), Wheat, Winter ([13]; Preemergence, 31 g ai/ha): 0
Plant response rating (scale of 0 to 100), Wheat, Winter ([13]; Preemergence, 62 g ai/ha): 0
Plant response rating, Wheat, Winter [13, 17]: 5
Plant response rating, Wheat, Winter [13, 18]: 5
Plant response rating, Wheat, Winter [13, 19]: 5
